{
  "source": "patent US10076508B2",
  "about": "“Pharmaceutical compositions for inhibiting antibiotic-resistant microorganisms and uses thereof” (Peptide Cham Biotech Co., Ltd., priority 2015, dated 2018)",
  "key": {"[1]": {"tested_on": "Mammalian cell line L292 and MEF cell lines", "experiment": "MTT assay cytotoxicity (survival analysis)", "format": "cell-based, human", "settings": "100 μg/mL, 24 hours, 570 nm absorbance", "method": "Mammalian cell line L292 and MEF cell lines were cultured in Dulbecco's modified Eagle culture medium, wherein the culture medium was added with 100 μg/mL streptomycin, 100 U/mL penicillin and 10% (v/v) fetal bovine serum, and then the cell lines were cultured the in 5% CO2 containing humidified incubator under 37° C.\nMTT assay was used for investigating the cytotoxicity of compound on mammalian cells. The cells were cultured at 96-well tray with 100 μL culture medium for 24 hours after sterilization, then the cells were cultured in the diluted culture medium for 24 hours. 3-(4,5-dimethylthiazol-2yl)-2,5-diphenyltetrazolium bromide (MTT) was added into each well of 96-well tray and incubated for 4 hours. The cell suspension was removed and 100 μL dimethyl sulfoxide was added for dissolving all the precipitate. Enzyme immunoassay instrument was used for measure the 570 nm absorbance."}, "Staphylococcus aureus": {"tested_on": "Staphylococcus aureus", "experiment": "Antibiotics activity test (bacteria concentration OD630 over time)", "format": "cell-based", "settings": "1 μg/ml Fmoc-Ala-OPfp in culture medium, 8 hours after bacterial inoculation, 37° C.; compared with ampicillin and vancomycin", "method": "The bacteria were cultured for antibiotics activity test. (FIG. 3) The cultured cells were added with specific concentration of Fmoc-Ala-OPfp, Ampicillin and Vancomycin as experimental group, and the cultured cells were not added with any drugs as control group, and the same amount of Staphylococcus aureus colonies were added then cultured in an incubator under 37° C. The different time of bacteria concentrations (OD630) were tested to investigate the antibiotic inhibitory effect of Fmoc-Ala-OPfp, Ampicillin and Vancomycin.\nOnly a small amount (1 μg/ml) of Fmoc-Ala-OPfp was added in the culture medium."}, "human red blood cells": {"tested_on": "human red blood cells", "experiment": "Hemolytic test", "format": "cell-based", "settings": "at 100 μg/ml; human red blood cells 2% (V/V), 37° C., 1 hour, O.D. 490 nm", "method": "Fresh human red blood cells were washed by 0.9% physiological saline for three times, then were dissolved into 2% (V/V) physiological saline, and 50 μL red blood cells suspension and 50 μL of the compound (10, 50 and 100 μg/ml of antibiotic Fmoc-Ala-OPfp) and Triton X-100 was added into the 96-well tray, wherein the final concentration of red blood cells was 2% (V/V). The sample was slightly shaking in the incubator under 37° C. for 1 hour and centrifuged with 2000 g for 30 minutes. 50 μL sample suspension was dropped into a new 96-well tray and the O.D. 490 nm absorbance was measured. The physiological saline and Triton X-100 was negative control group and positive control group, respectively."}},
  "data": [
    {"smiles": "C[C@H](NC(=O)OCC1c2ccccc2-c2ccccc21)C(=O)Oc1c(F)c(F)c(F)c(F)c1F", "note": "[Fmoc-Ala-OPfp, N-(9-fluorenylmethoxycarbonyl)-L-alanine pentafluorophenyl]", "values": [
      {"measurement": "cell toxicity on MTT assay", "setting": "[1]", "value": "10-20%"},
      {"measurement": "antibiotic effect (inhibition of bacteria growth, OD630)", "setting": "Staphylococcus aureus", "value": "equivalent to 5.3 μg/ml of ampicillin and 5.3 μg/ml vancomycin"},
      {"measurement": "hemolytic activity", "setting": "human red blood cells", "value": "low hemolytic activity"}
    ]}
  ]
}
